Results from ChEMBL document CHEMBL2074098, “Estradiol 17 beta-D-glucuronide is a high-affinity substrate for oatp organic anion transporter” (Am J Physiol, 1996).

T1: Solute carrier organic anion transporter family member 1A1 (Rattus norvegicus, UniProt P46720)
T1 sequence (P46720 whole entry): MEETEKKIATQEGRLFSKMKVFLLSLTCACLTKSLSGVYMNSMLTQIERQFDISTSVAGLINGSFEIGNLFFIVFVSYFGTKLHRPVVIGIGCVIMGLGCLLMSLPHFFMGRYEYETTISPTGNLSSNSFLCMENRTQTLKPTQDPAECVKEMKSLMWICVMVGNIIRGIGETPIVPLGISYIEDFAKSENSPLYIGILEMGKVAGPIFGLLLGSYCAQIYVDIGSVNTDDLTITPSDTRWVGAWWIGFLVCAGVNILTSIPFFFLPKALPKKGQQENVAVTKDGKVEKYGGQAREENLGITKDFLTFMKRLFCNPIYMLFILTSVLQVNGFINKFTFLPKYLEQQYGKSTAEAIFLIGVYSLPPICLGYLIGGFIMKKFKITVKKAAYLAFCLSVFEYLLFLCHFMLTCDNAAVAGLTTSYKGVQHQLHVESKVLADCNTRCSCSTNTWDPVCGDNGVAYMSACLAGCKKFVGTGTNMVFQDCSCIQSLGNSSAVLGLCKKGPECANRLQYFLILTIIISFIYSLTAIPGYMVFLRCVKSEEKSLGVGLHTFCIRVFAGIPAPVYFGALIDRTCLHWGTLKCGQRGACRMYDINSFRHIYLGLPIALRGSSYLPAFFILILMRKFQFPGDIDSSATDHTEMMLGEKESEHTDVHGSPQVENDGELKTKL

B1: Solute carrier organic anion transporter family member 1A1 (Rattus norvegicus) (protein)
chain: T1 sequence (P46720 whole entry)

biological target: T1, Solute carrier organic anion transporter family member 1A1; assay: TP_TRANSPORTER: inhibition of E217betaG uptake in Oatp1-expressing HeLa cells; type: functional, cell-based

Compared with C[C@]12CC[C@@H](O)C[C@@H]1CC[C@@H]1[C@@H]2CC[C@]2(C)C(=O)CC[C@@H]12 [ANDROSTERONE], CC(=O)O[C@@H]1CC[C@@]2(C)[C@@H](CC[C@@H]3[C@@H]2CC[C@]2(C)C(=O)CC[C@@H]32)C1 [ANDROSTERONE ACETATE] is 7.2-fold higher in Ki: 10.6 µM for the first, 76.2 µM for the second. The first binds more tightly here.

First: C[C@]12CC[C@@H](OS(=O)(=O)O)C[C@@H]1CC[C@@H]1[C@@H]2CC[C@]2(C)C(=O)CC[C@@H]12
Second: C[C@]12CC[C@H]3[C@@H](CCC4=CC(=O)CC[C@@]43C)[C@@H]1CC[C@@H]2O [TESTOSTERONE]
The Ki of the first is 2.3-fold lower: 2.4 µM for the first, 5.4 µM for the second. The first binds more tightly here.

First: C#C[C@]1(OS(=O)(=O)O)CC[C@H]2[C@@H]3CCc4cc(O)ccc4[C@H]3CC[C@@]21C
Second: C[C@]12CC[C@@H]3c4ccc(O)cc4CC[C@H]3[C@@H]1CC[C@@]2(O)CC(=O)O
The Ki of the first is lower: 1.3 µM for the first, over 200 µM for the second.

Going from C[C@]12CC[C@@H]3c4ccc(O)cc4CC[C@H]3[C@@H]1CCC2=O [ESTRONE] to C[C@]12CC[C@@H]3c4ccc(OS(=O)(=O)O)cc4CC[C@H]3[C@@H]1CCC2=O [ESTRONE SULFURIC ACID], the Ki falls from 15.7 µM to 1.3 µM (12-fold). The second binds more tightly here.

Going from C[C@]12C[C@H](O)[C@H]3[C@@H](CCC4=CC(=O)CC[C@@]43C)[C@@H]1CC[C@@H]2C(=O)COS(=O)(=O)O to C[C@]12C[C@H](O)[C@H]3[C@@H](CCC4=CC(=O)CC[C@@]43C)[C@@H]1CC[C@@H]2C(=O)CO [CORTICOSTERONE], the Ki rises from 1.6 µM to 5.3 µM (3.3-fold).

Going from C[C@]12CC[C@@H]3c4ccc(O[C@@H]5O[C@H](C(=O)O)[C@@H](O)[C@H](O)[C@H]5O)cc4CC[C@H]3[C@@H]1CC[C@@H]2O to C[C@]12CC[C@@H]3c4ccc(OS(=O)(=O)O)cc4CC[C@H]3[C@@H]1CC[C@@H]2O, the Ki falls from 9.7 µM to 1.1 µM (8.8-fold). The second binds more tightly here.

Compared with C[C@]12CC[C@@H]3c4ccc(O)cc4CC[C@H]3[C@@H]1C[C@@H](O)[C@@H]2O [ESTRIOL], C[C@]12CC[C@@H]3c4ccc(O)cc4CC[C@H]3[C@@H]1CC[C@@H]2O [ESTRADIOL] is 2.1-fold lower in Ki: 9.8 µM for the first, 4.7 µM for the second. The second binds more tightly here.

For C[C@]12CC[C@H]3[C@@H](CCC4=CC(=O)CC[C@@]43C)[C@@H]1CC[C@@H]2O[C@@H]1O[C@H](C(=O)O)[C@@H](O)[C@H](O)[C@H]1O, the Ki was 3.8 µM.

substrate: C[C@]12CC[C@@H]3c4ccc(O)cc4CC[C@H]3[C@@H]1CC[C@@H]2O[C@@H]1O[C@H](C(=O)O)[C@@H](O)[C@H](O)[C@H]1O; assay: TP_TRANSPORTER: uptake in Oatp1-expressing HeLa cells; type: functional, cell-based

B1 showed a Km of 3.2 µM.
